Assay results: paper PMC4703981, “Autophosphorylation at Thr279 of Entamoeba histolytica atypical kinase EhAK1 is required for activity and regulation of erythrophagocytosis” (Scientific Reports, 2016)

Target: T1, EhAK1 (Entamoeba histolytica, UniProt C4M9G9)
T1 construct: gene EHI_105830
Details: maximal quench on ATP titration, no affinity constant

T1 sequence (C4M9G9 entry or part of it): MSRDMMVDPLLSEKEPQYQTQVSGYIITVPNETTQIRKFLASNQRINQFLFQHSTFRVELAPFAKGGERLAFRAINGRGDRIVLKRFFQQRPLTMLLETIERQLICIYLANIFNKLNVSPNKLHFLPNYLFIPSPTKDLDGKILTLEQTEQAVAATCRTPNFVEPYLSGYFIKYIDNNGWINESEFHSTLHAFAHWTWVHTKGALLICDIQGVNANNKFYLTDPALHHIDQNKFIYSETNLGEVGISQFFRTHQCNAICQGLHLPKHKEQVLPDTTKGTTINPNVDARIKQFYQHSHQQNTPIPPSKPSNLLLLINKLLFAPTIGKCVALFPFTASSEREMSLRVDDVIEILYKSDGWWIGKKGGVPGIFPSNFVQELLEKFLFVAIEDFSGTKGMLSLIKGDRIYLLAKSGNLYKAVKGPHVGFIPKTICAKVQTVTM

`Nc1ncnc2c1ncn2[C@@H]1O[C@H](COP(=O)(O)OP(=O)(O)OP(=O)(O)O)[C@@H](O)[C@H]1O` [ATP] was tested. Which “% decrease in Trp fluorescence” value did it give?
Its value is 76%.
